From PubChem BioAssay AID272 (DTP/NCI, 2004)
Records with an inconclusive call do not appear.

Tested on: Lewis lung carcinoma i.m., BDF1 mice, T/C %
Test: NCI In Vivo Anticancer Drug Screen. Data for tumor model Lewis Lung Carcinoma (intramuscular) in B6D2F1 (BDF1) mice
Summary of the method: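 Tumour-bearing mice were dosed with compound, and either their survival or their tumour size was measured. Results were expressed relative to vehicle-treated controls as T/C.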

## CN(C)C(=O)c1cccc(COc2ccc(N3C(N)=NC(N)=NC3(C)C)cc2Cl)c1
endpoint: mean tumor weight, dose: 3.13 mg/kg/injection, schedule: Q01DX011 (ip), vehicle: saline, higher = larger tumour
  T/C: 66 % of control
endpoint: mean tumor weight, dose: 12.5 mg/kg/injection, schedule: Q01DX011 (ip), vehicle: saline, higher = larger tumour
  T/C: 66 % of control
endpoint: median survival time, dose: 3.13 mg/kg/injection, schedule: Q01DX011 (ip), vehicle: saline, higher = longer survival
  T/C: 103 % of control
endpoint: median survival time, dose: 12.5 mg/kg/injection, schedule: Q01DX011 (ip), vehicle: saline, higher = longer survival
  T/C: 88 % of control

## COc1cc2c(c(OC)c1OC)-c1ccc(OC)c(=O)cc1[C@@H](NC=O)CC2
endpoint: mean tumor weight (est.), dose: 0.25 mg/kg/injection, schedule: Q01DX011 (ip), vehicle: saline, higher = larger tumour
  T/C: 90 % of control
endpoint: mean tumor weight (est.), dose: 0.5 mg/kg/injection, schedule: Q01DX011 (ip), vehicle: saline, higher = larger tumour
  T/C: 73 % of control
endpoint: mean tumor weight (est.), dose: 1.0 mg/kg/injection, schedule: Q01DX011 (ip), vehicle: saline, higher = larger tumour
  T/C: 49 % of control
endpoint: median survival time, dose: 0.25 mg/kg/injection, schedule: Q01DX011 (ip), vehicle: saline, higher = longer survival
  T/C: 90 % of control
endpoint: median survival time, dose: 0.5 mg/kg/injection, schedule: Q01DX011 (ip), vehicle: saline, higher = longer survival
  T/C: 116 % of control
endpoint: median survival time, dose: 1.0 mg/kg/injection, schedule: Q01DX011 (ip), vehicle: saline, higher = longer survival
  T/C: 88 % of control

## CCC/C(C)=N/Nc1ccccn1
endpoint: mean tumor weight (est.), dose: 12.5 mg/kg/injection, schedule: Q01DX011 (ip), vehicle: saline with Tween-80, higher = larger tumour
  T/C: 85 % of control
endpoint: mean tumor weight (est.), dose: 25.0 mg/kg/injection, schedule: Q01DX011 (ip), vehicle: saline with Tween-80, higher = larger tumour
  T/C: 84 % of control
endpoint: mean tumor weight (est.), dose: 50.0 mg/kg/injection, schedule: Q01DX011 (ip), vehicle: saline with Tween-80, higher = larger tumour
  T/C: 81 % of control
endpoint: median survival time, dose: 12.5 mg/kg/injection, schedule: Q01DX011 (ip), vehicle: saline with Tween-80, higher = longer survival
  T/C: 94 % of control
endpoint: median survival time, dose: 25.0 mg/kg/injection, schedule: Q01DX011 (ip), vehicle: saline with Tween-80, higher = longer survival
  T/C: 88 % of control

## c1ccc(-c2csc3c4ccccc4c4ccccc4[n+]23)cc1
endpoint: mean tumor weight (est.), dose: 0.5 mg/kg/injection, schedule: Q01DX011 (ip), vehicle: saline with Tween-80, higher = larger tumour
  T/C: 102 % of control
endpoint: mean tumor weight (est.), dose: 2.0 mg/kg/injection, schedule: Q01DX011 (ip), vehicle: saline with Tween-80, higher = larger tumour
  T/C: 61 % of control
endpoint: median survival time, dose: 0.5 mg/kg/injection, schedule: Q01DX011 (ip), vehicle: saline with Tween-80, higher = longer survival
  T/C: 89 % of control
endpoint: median survival time, dose: 2.0 mg/kg/injection, schedule: Q01DX011 (ip), vehicle: saline with Tween-80, higher = longer survival
  T/C: 93 % of control

## CS(=O)(=O)OCCCCOS(C)(=O)=O
endpoint: mean tumor weight, dose: 12.5 mg/kg/injection, schedule: Q01DX011 (ip), vehicle: Klucel (hydroxypropylcellulose) (HPC), higher = larger tumour
  T/C: 88 % of control
endpoint: mean tumor weight, dose: 25.0 mg/kg/injection, schedule: Q01DX011 (ip), vehicle: Klucel (hydroxypropylcellulose) (HPC), higher = larger tumour
  T/C: 109 % of control
endpoint: median survival time, dose: 12.5 mg/kg/injection, schedule: Q01DX011 (ip), vehicle: Klucel (hydroxypropylcellulose) (HPC), higher = longer survival
  T/C: 89 % of control

## NC(C=O)C(O)C(O)C(O)CO (configuration not stated)
endpoint: mean tumor weight (est.), dose: 750.0 mg/kg/injection, schedule: Q01DX011 (ip), vehicle: saline, higher = larger tumour
  T/C: 77 % of control
endpoint: mean tumor weight (est.), dose: 1500.0 mg/kg/injection, schedule: Q01DX011 (ip), vehicle: saline, higher = larger tumour
  T/C: 93 % of control
endpoint: mean tumor weight (est.), dose: 3000.0 mg/kg/injection, schedule: Q01DX011 (ip), vehicle: saline, higher = larger tumour
  T/C: 89 % of control
endpoint: median survival time, dose: 1500.0 mg/kg/injection, schedule: Q01DX011 (ip), vehicle: saline, higher = longer survival
  T/C: 104 % of control
endpoint: median survival time, dose: 3000.0 mg/kg/injection, schedule: Q01DX011 (ip), vehicle: saline, higher = longer survival
  T/C: 104 % of control

## CCCCCCCCCCCC[S+](C)C
endpoint: median survival time, dose: 2.0 mg/kg/injection, schedule: Q01DX011 (ip), vehicle: saline, higher = longer survival
  T/C: 100 % of control
endpoint: median survival time, dose: 4.0 mg/kg/injection, schedule: Q01DX011 (ip), vehicle: saline, higher = longer survival
  T/C: 114 % of control

## CC[n+]1ccc(Nc2ccc(NC(=O)c3ccc(Nc4cc[n+](CC)c5ccc(N)cc45)cc3)cc2)cc1
endpoint: mean tumor weight, dose: 0.12 mg/kg/injection, schedule: Q01DX011 (ip), vehicle: water, higher = larger tumour
  T/C: 109 % of control
endpoint: mean tumor weight, dose: 0.25 mg/kg/injection, schedule: Q01DX011 (ip), vehicle: water, higher = larger tumour
  T/C: 83 % of control
endpoint: mean tumor weight, dose: 0.5 mg/kg/injection, schedule: Q01DX011 (ip), vehicle: water, higher = larger tumour
  T/C: 87 % of control
endpoint: mean tumor weight, dose: 1.0 mg/kg/injection, schedule: Q01DX011 (ip), vehicle: water, higher = larger tumour
  T/C: 100 % of control
endpoint: mean tumor weight, dose: 2.0 mg/kg/injection, schedule: Q01DX011 (ip), vehicle: water, higher = larger tumour
  T/C: 67 % of control
endpoint: median survival time, dose: 0.12 mg/kg/injection, schedule: Q01DX011 (ip), vehicle: water, higher = longer survival
  T/C: 88 % of control
endpoint: median survival time, dose: 0.25 mg/kg/injection, schedule: Q01DX011 (ip), vehicle: water, higher = longer survival
  T/C: 88 % of control
endpoint: median survival time, dose: 0.5 mg/kg/injection, schedule: Q01DX011 (ip), vehicle: water, higher = longer survival
  T/C: 92 % of control
endpoint: median survival time, dose: 0.88 mg/kg/injection, schedule: Q01DX007 (sc), vehicle: saline, higher = longer survival
  T/C: 87 % of control
endpoint: median survival time, dose: 1.0 mg/kg/injection, schedule: Q01DX011 (ip), vehicle: water, higher = longer survival
  T/C: 104 % of control
endpoint: median survival time, dose: 1.5 mg/kg/injection, schedule: Q01DX007 (sc), vehicle: saline, higher = longer survival
  T/C: 110 % of control
endpoint: median survival time, dose: 2.0 mg/kg/injection, schedule: Q01DX011 (ip), vehicle: water, higher = longer survival
  T/C: 106 % of control
endpoint: median survival time, dose: 2.5 mg/kg/injection, schedule: Q01DX007 (sc), vehicle: saline, higher = longer survival
  T/C: 112 % of control
endpoint: median survival time, dose: 4.1 mg/kg/injection, schedule: Q01DX007 (sc), vehicle: saline, higher = longer survival
  T/C: 89 % of control
endpoint: median survival time, dose: 6.8 mg/kg/injection, schedule: Q01DX007 (sc), vehicle: saline, higher = longer survival
  T/C: 66 % of control

## Cc1nc(N)c(C)c(C(=O)O)n1
endpoint: median survival time, dose: 4.0 mg/kg/injection, schedule: Q01DX009 (ip), vehicle: water, higher = longer survival
  T/C: 110 % of control
endpoint: median survival time, dose: 8.0 mg/kg/injection, schedule: Q01DX009 (ip), vehicle: water, higher = longer survival
  T/C: 105 % of control
endpoint: median survival time, dose: 64.0 mg/kg/injection, schedule: Q01DX009 (ip), vehicle: water, higher = longer survival
  T/C: 92 % of control

## COC(=O)Nc1nc2ccc(C3(c4ccc(F)cc4)OCCO3)cc2[nH]1
endpoint: median survival time, dose: 20.0 mg/kg/injection, schedule: Q01DX011 (oral), vehicle: other, higher = longer survival
  T/C: 97 % of control
endpoint: median survival time, dose: 40.0 mg/kg/injection, schedule: Q01DX011 (oral), vehicle: other, higher = longer survival
  T/C: 97 % of control

## O=C1NC(c2cccc3ccccc23)Nc2ccccc21 (configuration not stated)
endpoint: mean tumor weight, dose: 15.6 mg/kg/injection, schedule: Q01DX011 (ip), vehicle: saline with Tween-80, higher = larger tumour
  T/C: 86 % of control
endpoint: mean tumor weight, dose: 31.2 mg/kg/injection, schedule: Q01DX011 (ip), vehicle: saline with Tween-80, higher = larger tumour
  T/C: 80 % of control
endpoint: mean tumor weight, dose: 62.5 mg/kg/injection, schedule: Q01DX011 (ip), vehicle: saline with Tween-80, higher = larger tumour
  T/C: 90 % of control
endpoint: mean tumor weight, dose: 125.0 mg/kg/injection, schedule: Q01DX011 (ip), vehicle: saline with Tween-80, higher = larger tumour
  T/C: 67 % of control
endpoint: median survival time, dose: 15.6 mg/kg/injection, schedule: Q01DX011 (ip), vehicle: saline, higher = longer survival
  T/C: 102 % of control
endpoint: median survival time, dose: 31.2 mg/kg/injection, schedule: Q01DX011 (ip), vehicle: saline, higher = longer survival
  T/C: 119 % of control
endpoint: median survival time, dose: 62.5 mg/kg/injection, schedule: Q01DX011 (ip), vehicle: saline, higher = longer survival
  T/C: 114 % of control
endpoint: median survival time, dose: 125.0 mg/kg/injection, schedule: Q01DX011 (ip), vehicle: saline, higher = longer survival
  T/C: 114 % of control

## Nc1ncnc2c1ncn2C1OC(CO)C(O)C1O (configuration not stated)
endpoint: mean tumor weight (est.), dose: 200.0 mg/kg/injection, schedule: Q01DX011 (ip), vehicle: saline, higher = larger tumour
  T/C: 65 % of control
endpoint: mean tumor weight (est.), dose: 400.0 mg/kg/injection, schedule: Q01DX011 (ip), vehicle: saline, higher = larger tumour
  T/C: 63 % of control
endpoint: mean tumor weight (est.), dose: 600.0 mg/kg/injection, schedule: Q01DX011 (ip), vehicle: saline, higher = larger tumour
  T/C: 15 % of control
endpoint: median survival time, dose: 200.0 mg/kg/injection, schedule: Q01DX011 (ip), vehicle: saline, higher = longer survival
  T/C: 119 % of control
endpoint: median survival time, dose: 400.0 mg/kg/injection, schedule: Q01DX011 (ip), vehicle: saline, higher = longer survival
  T/C: 86 % of control

## Cc1c2c(ccc3ccccc32)c[n+]2ccccc12
endpoint: mean tumor weight (est.), dose: 2.5 mg/kg/injection, schedule: Q01DX011 (ip), vehicle: saline, higher = larger tumour
  T/C: 60 % of control
endpoint: mean tumor weight (est.), dose: 5.0 mg/kg/injection, schedule: Q01DX011 (ip), vehicle: saline, higher = larger tumour
  T/C: 112 % of control
endpoint: mean tumor weight (est.), dose: 10.0 mg/kg/injection, schedule: Q01DX011 (ip), vehicle: saline, higher = larger tumour
  T/C: 65 % of control
endpoint: median survival time, dose: 2.5 mg/kg/injection, schedule: Q01DX011 (ip), vehicle: saline, higher = longer survival
  T/C: 107 % of control
endpoint: median survival time, dose: 5.0 mg/kg/injection, schedule: Q01DX011 (ip), vehicle: saline, higher = longer survival
  T/C: 92 % of control
endpoint: median survival time, dose: 10.0 mg/kg/injection, schedule: Q01DX011 (ip), vehicle: saline, higher = longer survival
  T/C: 94 % of control

## Nc1nc(=S)c2ncn(C3CC(O)C(CO)O3)c2[nH]1 (configuration not stated)
endpoint: mean tumor weight, dose: 3.12 mg/kg/injection, schedule: Q01DX011 (ip), vehicle: other, higher = larger tumour
  T/C: 120 % of control
endpoint: mean tumor weight, dose: 6.25 mg/kg/injection, schedule: Q01DX011 (ip), vehicle: other, higher = larger tumour
  T/C: 112 % of control
endpoint: mean tumor weight, dose: 12.5 mg/kg/injection, schedule: Q01DX011 (ip), vehicle: other, higher = larger tumour
  T/C: 120 % of control
endpoint: mean tumor weight, dose: 25.0 mg/kg/injection, schedule: Q01DX011 (ip), vehicle: other, higher = larger tumour
  T/C: 69 % of control
endpoint: median survival time, dose: 1.56 mg/kg/injection, schedule: Q01DX011 (ip), vehicle: other, higher = longer survival
  T/C: 112 % of control
endpoint: median survival time, dose: 3.12 mg/kg/injection, schedule: Q01DX011 (ip), vehicle: other, higher = longer survival
  T/C: 95 % of control
endpoint: median survival time, dose: 6.25 mg/kg/injection, schedule: Q01DX011 (ip), vehicle: other, higher = longer survival
  T/C: 102 % of control
endpoint: median survival time, dose: 12.5 mg/kg/injection, schedule: Q01DX011 (ip), vehicle: other, higher = longer survival
  T/C: 112 % of control
endpoint: median survival time, dose: 25.0 mg/kg/injection, schedule: Q01DX011 (ip), vehicle: other, higher = longer survival
  T/C: 112 % of control
